{
  "source": "ChEMBL document CHEMBL4411276",
  "about": "“Chemistry-oriented synthesis (ChOS) and target deconvolution on neuroprotective effect of a novel scaffold, oxaza spiroquinone” (Eur J Med Chem, 2019)",
  "key": {"[1]": {"system": "BV-2", "assay": "Anti-inflammatory activity in mouse BV2 cells assessed as reduction in LPS-induced NO production pre-treated before LPS stimulation for 24 hrs by Griess reagent-based assay", "assay_type": "functional, cell-based"}, "[2]": {"assay": "Cytotoxicity against LPS-stimulated mouse BV2 cells assessed as cell survival after 24 hrs by MTT assay relative to control", "assay_type": "cell-based, BV-2", "parameters": "concentration or dose not given beside the values", "conditions": "read-out: Survival"}, "[3]": {"assay": "Cytotoxicity against mouse BV2 cells assessed as cell survival after 24 hrs by MTT assay relative to control", "assay_type": "cell-based, BV-2", "parameters": "concentration or dose not given beside the values", "conditions": "read-out: Survival"}},
  "data": [
    {"smiles": "O=C1C=CC2(C=C1)OCC(Cc1ccc(F)cc1)C(=O)N2c1ccccc1", "note": "(stereo unspecified)", "values": [
      {"measurement": "IC50", "setting": "[1]", "result": 400, "unit": "nM"},
      {"measurement": "viability at 24 h", "setting": "[2]", "result": 85.2, "unit": "%"},
      {"measurement": "viability at 24 h", "setting": "[3]", "result": 82.9, "unit": "%"}
    ]},
    {"smiles": "O=C1C=CC2(C=C1)OCC(Cc1cc(C(F)(F)F)ccc1Cl)C(=O)N2c1ccccc1", "note": "(stereo unspecified)", "values": [
      {"measurement": "IC50", "setting": "[1]", "result": 770, "unit": "nM"},
      {"measurement": "viability at 24 h", "setting": "[2]", "result": 64.4, "unit": "%"},
      {"measurement": "viability at 24 h", "setting": "[3]", "result": 70.5, "unit": "%"}
    ]},
    {"smiles": "O=C1C=CC2(C=C1)OCC(Cc1ccccc1)C(=O)N2c1ccccc1", "note": "(stereo unspecified)", "values": [
      {"measurement": "IC50", "setting": "[1]", "result": 570, "unit": "nM"},
      {"measurement": "viability at 24 h", "setting": "[2]", "result": 76.1, "unit": "%"},
      {"measurement": "viability at 24 h", "setting": "[3]", "result": 82.1, "unit": "%"}
    ]},
    {"smiles": "CNC(=N)NCCC[C@H](N)C(=O)O", "note": "[TILARGININE]", "values": [
      {"measurement": "IC50", "setting": "[1]", "result": 16000, "unit": "nM"},
      {"measurement": "viability at 24 h", "setting": "[2]", "result": 60.5, "unit": "%"}
    ]},
    {"smiles": "O=C1C=CC2(C=C1)OCC(Cc1ccc(Cl)cc1)C(=O)N2c1ccccc1", "note": "(stereo unspecified)", "values": [
      {"measurement": "IC50", "setting": "[1]", "result": 540, "unit": "nM"},
      {"measurement": "viability at 24 h", "setting": "[2]", "result": 79, "unit": "%"},
      {"measurement": "viability at 24 h", "setting": "[3]", "result": 91, "unit": "%"}
    ]},
    {"smiles": "O=C1C=CC2(C=C1)OCCC(=O)N2c1ccccc1", "values": [
      {"measurement": "IC50", "setting": "[1]", "result": 1300, "unit": "nM"},
      {"measurement": "viability at 24 h", "setting": "[2]", "result": 79.8, "unit": "%"},
      {"measurement": "viability at 24 h", "setting": "[3]", "result": 102, "unit": "%"}
    ]},
    {"smiles": "O=C1C=CC2(C=C1)OCC(Cc1cccc(Br)c1)C(=O)N2c1ccccc1", "note": "(stereo unspecified)", "values": [
      {"measurement": "IC50", "setting": "[1]", "result": 540, "unit": "nM"},
      {"measurement": "viability at 24 h", "setting": "[2]", "result": 74, "unit": "%"},
      {"measurement": "viability at 24 h", "setting": "[3]", "result": 96, "unit": "%"}
    ]},
    {"smiles": "O=C1C=CC2(C=C1)OCC(Cc1ccc(C(F)(F)F)cc1[N+](=O)[O-])C(=O)N2c1ccccc1", "note": "(stereo unspecified)", "values": [
      {"measurement": "IC50", "setting": "[1]", "result": 970, "unit": "nM"}
    ]},
    {"smiles": "O=C1C=CC2(C=C1)OCC(Cc1c(F)cccc1C(F)(F)F)C(=O)N2c1ccccc1", "note": "(stereo unspecified)", "values": [
      {"measurement": "IC50", "setting": "[1]", "result": 600, "unit": "nM"},
      {"measurement": "viability at 24 h", "setting": "[2]", "result": 71.1, "unit": "%"},
      {"measurement": "viability at 24 h", "setting": "[3]", "result": 84.4, "unit": "%"}
    ]},
    {"smiles": "C=CCCC1COC2(C=CC(=O)C=C2)N(c2ccccc2)C1=O", "note": "(stereo unspecified)", "values": [
      {"measurement": "IC50", "setting": "[1]", "result": 730, "unit": "nM"},
      {"measurement": "viability at 24 h", "setting": "[2]", "result": 80.4, "unit": "%"},
      {"measurement": "viability at 24 h", "setting": "[3]", "result": 89, "unit": "%"}
    ]},
    {"smiles": "C=CCC1COC2(C=CC(=O)C=C2)N(c2ccccc2)C1=O", "note": "(stereo unspecified)", "values": [
      {"measurement": "IC50", "setting": "[1]", "result": 1030, "unit": "nM"},
      {"measurement": "viability at 24 h", "setting": "[2]", "result": 84.6, "unit": "%"},
      {"measurement": "viability at 24 h", "setting": "[3]", "result": 89.7, "unit": "%"}
    ]},
    {"smiles": "O=C1C=CC2(C=C1)OCC(Cc1ccc(Br)cc1)C(=O)N2c1ccccc1", "note": "(stereo unspecified)", "values": [
      {"measurement": "IC50", "setting": "[1]", "result": 1380, "unit": "nM"},
      {"measurement": "viability at 24 h", "setting": "[2]", "result": 72, "unit": "%"},
      {"measurement": "viability at 24 h", "setting": "[3]", "result": 82.7, "unit": "%"}
    ]},
    {"smiles": "Cc1cc(C)cc(CC2COC3(C=CC(=O)C=C3)N(c3ccccc3)C2=O)c1", "note": "(stereo unspecified)", "values": [
      {"measurement": "IC50", "setting": "[1]", "result": 1820, "unit": "nM"},
      {"measurement": "viability at 24 h", "setting": "[2]", "result": 78, "unit": "%"},
      {"measurement": "viability at 24 h", "setting": "[3]", "result": 94.2, "unit": "%"}
    ]},
    {"smiles": "O=C1C=CC2(C=C1)OCC(Cc1ccc([N+](=O)[O-])cc1)C(=O)N2c1ccccc1", "note": "(stereo unspecified)", "values": [
      {"measurement": "IC50", "setting": "[1]", "result": 430, "unit": "nM"},
      {"measurement": "viability at 24 h", "setting": "[2]", "result": 82.7, "unit": "%"},
      {"measurement": "viability at 24 h", "setting": "[3]", "result": 95.5, "unit": "%"}
    ]},
    {"smiles": "C=C(C)CC1COC2(C=CC(=O)C=C2)N(c2ccccc2)C1=O", "note": "(stereo unspecified)", "values": [
      {"measurement": "IC50", "setting": "[1]", "result": 450, "unit": "nM"},
      {"measurement": "viability at 24 h", "setting": "[2]", "result": 80.1, "unit": "%"},
      {"measurement": "viability at 24 h", "setting": "[3]", "result": 91.4, "unit": "%"}
    ]},
    {"smiles": "CC1COC2(C=CC(=O)C=C2)N(c2ccccc2)C1=O", "note": "(stereo unspecified)", "values": [
      {"measurement": "IC50", "setting": "[1]", "result": 1220, "unit": "nM"},
      {"measurement": "viability at 24 h", "setting": "[2]", "result": 72.8, "unit": "%"},
      {"measurement": "viability at 24 h", "setting": "[3]", "result": 86.1, "unit": "%"}
    ]},
    {"smiles": "O=C1C=CC2(C=C1)OCC(Cc1ccc(C(F)(F)F)cc1)C(=O)N2c1ccccc1", "note": "(stereo unspecified)", "values": [
      {"measurement": "IC50", "setting": "[1]", "result": 1650, "unit": "nM"},
      {"measurement": "viability at 24 h", "setting": "[2]", "result": 84.1, "unit": "%"},
      {"measurement": "viability at 24 h", "setting": "[3]", "result": 87.1, "unit": "%"}
    ]},
    {"smiles": "O=C1C=CC2(C=C1)OCC(Cc1ccccc1CS(=O)(=O)c1ccccc1)C(=O)N2c1ccccc1", "note": "(stereo unspecified)", "values": [
      {"measurement": "IC50", "setting": "[1]", "result": 980, "unit": "nM"},
      {"measurement": "viability at 24 h", "setting": "[2]", "result": 84.3, "unit": "%"},
      {"measurement": "viability at 24 h", "setting": "[3]", "result": 97.5, "unit": "%"}
    ]}
  ]
}
